Here are results for 5 cell lines from the supplement of paper PMC10307832.

Holding throughout (test): relative viability (nuclei count vs DMSO), 5 days (fraction); higher = more cells survive
Compound in the experiment “Seliciclib + Foretinib”: CC[C@H](CO)Nc1nc(NCc2ccccc2)c2ncn(C(C)C)c2n1 [Seliciclib] + COc1cc2c(Oc3ccc(NC(=O)C4(C(=O)Nc5ccc(F)cc5)CC4)cc3F)ccnc2cc1OCCCN1CCOCC1 [Foretinib] (partner 0.25 µM)
In a few lines: (§1)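 Relative viability was taken as the ratio of nuclei in treated wells to nuclei in vehicle wells. Lung cancer cell lines in 1536-well plates received compounds by pin tool one day after seeding, either one drug alone or a fixed anchor-drug dose plus five library-drug doses (not always all listed) in √10 steps. Nuclei were counted on 4× images after 5 days of treatment, and values are medians of duplicate plates.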

Compound in the experiment “Seliciclib + Pictilisib”: CC[C@H](CO)Nc1nc(NCc2ccccc2)c2ncn(C(C)C)c2n1 [Seliciclib] + CS(=O)(=O)N1CCN(Cc2cc3nc(-c4cccc5[nH]ncc45)nc(N4CCOCC4)c3s2)CC1 [Pictilisib] (partner 1 µM)
The method, boiled down: as §1

Compound in the experiment “Seliciclib + AZD7762”: CC[C@H](CO)Nc1nc(NCc2ccccc2)c2ncn(C(C)C)c2n1 [Seliciclib] + NC(=O)Nc1cc(-c2cccc(F)c2)sc1C(=O)N[C@H]1CCCNC1 [AZD7762] (partner 0.2 µM)
In a few lines:
as §1

Compound in the experiment “Seliciclib + Vorinostat”: CC[C@H](CO)Nc1nc(NCc2ccccc2)c2ncn(C(C)C)c2n1 [Seliciclib] + O=C(CCCCCCC(=O)Nc1ccccc1)NO [Vorinostat] (partner 1 µM)
The method, boiled down: as §1

In the case of NCI-H2347, the relative viability with Seliciclib + Foretinib (first compound 0.08 µM) came out at 1.18; in the experiment with Seliciclib + Foretinib (first compound 0.253 µM), 1.23; with Seliciclib + Foretinib (first compound 0.8 µM), 0.938; with Seliciclib + Foretinib (first compound 8 µM), 0.738; with Seliciclib + Pictilisib (first compound 0.08 µM) it was 0.645; with Seliciclib + Pictilisib (first compound 0.253 µM), 0.6. Further, the relative viability with Seliciclib + Pictilisib (first compound 0.8 µM) is 0.321; with Seliciclib + Pictilisib (first compound 2.53 µM) it was 0.829; with Seliciclib + Pictilisib (first compound 8 µM), 0.448; with Seliciclib + AZD7762 (first compound 0.08 µM), 0.817; with Seliciclib + AZD7762 (first compound 0.253 µM), 0.759; with Seliciclib + AZD7762 (first compound 0.8 µM), 0.745. In addition, the relative viability in the experiment with Seliciclib + AZD7762 (first compound 2.53 µM) is 0.763; with Seliciclib + AZD7762 (first compound 8 µM) it was 0.865; with Seliciclib + Vorinostat (first compound 0.08 µM), 0.595; in the experiment with Seliciclib + Vorinostat (first compound 0.253 µM), 0.656; with Seliciclib + Vorinostat (first compound 0.8 µM), 0.443; in the experiment with Seliciclib + Vorinostat (first compound 2.53 µM), 0.566. Further, in the experiment with Seliciclib + Vorinostat (first compound 8 µM), the relative viability is 0.432.

As to NCI-H2126, the relative viability with Seliciclib + Foretinib (first compound 0.08 µM) was 1.11; with Seliciclib + Foretinib (first compound 0.253 µM), 1.21; with Seliciclib + Foretinib (first compound 0.8 µM), 1.07; with Seliciclib + Foretinib (first compound 2.53 µM) it was 0.968; in the experiment with Seliciclib + Foretinib (first compound 8 µM), 0.943; with Seliciclib + Pictilisib (first compound 0.08 µM), 0.507. Moreover, the relative viability is 0.548 with Seliciclib + Pictilisib (first compound 0.253 µM); 0.456 in the experiment with Seliciclib + Pictilisib (first compound 0.8 µM); 0.423 with Seliciclib + Pictilisib (first compound 2.53 µM); 0.467 with Seliciclib + Pictilisib (first compound 8 µM); 1.04 with Seliciclib + AZD7762 (first compound 0.08 µM); 0.987 with Seliciclib + AZD7762 (first compound 0.253 µM). Besides, the relative viability with Seliciclib + AZD7762 (first compound 0.8 µM) was 0.994; with Seliciclib + AZD7762 (first compound 2.53 µM), 0.822; in the experiment with Seliciclib + AZD7762 (first compound 8 µM), 0.909; with Seliciclib + Vorinostat (first compound 0.08 µM), 0.806; in the experiment with Seliciclib + Vorinostat (first compound 0.253 µM), 0.783; with Seliciclib + Vorinostat (first compound 0.8 µM), 0.579. Besides, the relative viability with Seliciclib + Vorinostat (first compound 2.53 µM) turned out to be 0.375; with Seliciclib + Vorinostat (first compound 8 µM) it was 0.611.

In the case of HCC-827, the relative viability with Seliciclib + Foretinib (first compound 0.08 µM) amounted to 1.01; with Seliciclib + Foretinib (first compound 0.253 µM) it was 1.04; with Seliciclib + Foretinib (first compound 0.8 µM) it was 0.968; with Seliciclib + Foretinib (first compound 2.53 µM) it was 0.972; with Seliciclib + Foretinib (first compound 8 µM), 0.925; with Seliciclib + Pictilisib (first compound 0.08 µM), 0.953. Further, the relative viability was found to be 0.963 with Seliciclib + Pictilisib (first compound 0.253 µM); 0.811 in the experiment with Seliciclib + Pictilisib (first compound 0.8 µM); 1.03 in the experiment with Seliciclib + Pictilisib (first compound 2.53 µM); 0.925 in the experiment with Seliciclib + Pictilisib (first compound 8 µM); 0.211 with Seliciclib + AZD7762 (first compound 0.08 µM); 0.19 in the experiment with Seliciclib + AZD7762 (first compound 0.253 µM). Further, the relative viability in the experiment with Seliciclib + AZD7762 (first compound 0.8 µM) is 0.217; with Seliciclib + AZD7762 (first compound 2.53 µM), 0.209; with Seliciclib + AZD7762 (first compound 8 µM) it was 0.172; with Seliciclib + Vorinostat (first compound 0.08 µM) it was 0.845; with Seliciclib + Vorinostat (first compound 0.253 µM), 0.951; in the experiment with Seliciclib + Vorinostat (first compound 0.8 µM), 0.912. In addition, the relative viability with Seliciclib + Vorinostat (first compound 2.53 µM) was 0.77; with Seliciclib + Vorinostat (first compound 8 µM), 0.756.

With NCI-H3122, the relative viability with Seliciclib + Foretinib (first compound 0.08 µM) came out at 1.03; in the experiment with Seliciclib + Foretinib (first compound 0.8 µM) it was 0.938; with Seliciclib + Foretinib (first compound 2.53 µM), 0.983; with Seliciclib + Foretinib (first compound 8 µM) it was 0.786; in the experiment with Seliciclib + Pictilisib (first compound 0.08 µM), 0.607; in the experiment with Seliciclib + Pictilisib (first compound 0.253 µM) it was 0.63. The relative viability turned out to be 0.432 with Seliciclib + Pictilisib (first compound 0.8 µM); 0.509 in the experiment with Seliciclib + Pictilisib (first compound 2.53 µM); 0.506 with Seliciclib + Pictilisib (first compound 8 µM); 0.935 with Seliciclib + AZD7762 (first compound 0.08 µM); 0.939 in the experiment with Seliciclib + AZD7762 (first compound 0.253 µM); 0.915 in the experiment with Seliciclib + AZD7762 (first compound 0.8 µM). Besides, the relative viability with Seliciclib + AZD7762 (first compound 2.53 µM) was found to be 0.959; in the experiment with Seliciclib + AZD7762 (first compound 8 µM), 0.897; in the experiment with Seliciclib + Vorinostat (first compound 0.08 µM) it was 0.925; with Seliciclib + Vorinostat (first compound 0.253 µM) it was 0.979; in the experiment with Seliciclib + Vorinostat (first compound 0.8 µM), 0.759; with Seliciclib + Vorinostat (first compound 2.53 µM) it was 1.09. In addition, in the experiment with Seliciclib + Vorinostat (first compound 8 µM), the relative viability amounted to 0.86.

HOP-62: the relative viability in the experiment with Seliciclib + Foretinib (first compound 0.08 µM) is 1.17; with Seliciclib + Foretinib (first compound 0.253 µM), 1.18; with Seliciclib + Foretinib (first compound 0.8 µM), 1.1; in the experiment with Seliciclib + Foretinib (first compound 2.53 µM), 1.17; with Seliciclib + Foretinib (first compound 8 µM), 0.993; with Seliciclib + Pictilisib (first compound 0.08 µM), 0.778. The relative viability with Seliciclib + Pictilisib (first compound 0.253 µM) came out at 0.61; with Seliciclib + Pictilisib (first compound 0.8 µM), 0.563; with Seliciclib + Pictilisib (first compound 2.53 µM) it was 0.588; with Seliciclib + Pictilisib (first compound 8 µM), 0.62; in the experiment with Seliciclib + AZD7762 (first compound 0.08 µM), 0.63; in the experiment with Seliciclib + AZD7762 (first compound 0.253 µM) it was 0.407. The relative viability with Seliciclib + AZD7762 (first compound 0.8 µM) is 0.394; in the experiment with Seliciclib + AZD7762 (first compound 2.53 µM), 0.923; with Seliciclib + AZD7762 (first compound 8 µM) it was 0.822; in the experiment with Seliciclib + Vorinostat (first compound 0.08 µM) it was 0.65; in the experiment with Seliciclib + Vorinostat (first compound 0.253 µM) it was 0.623; in the experiment with Seliciclib + Vorinostat (first compound 0.8 µM) it was 0.732. In addition, the relative viability was found to be 0.479 with Seliciclib + Vorinostat (first compound 2.53 µM) and 0.437 with Seliciclib + Vorinostat (first compound 8 µM).
